{"source": "patent US7208162B2", "about": "“Combination therapy of respiratory diseases using antibodies and anti-inflammatory agents” (priority 2000, dated 2007)", "key": {"[1]": {"tested_on": "Respiratory Syncytial Virus", "conditions": "systemically administered; 147 infants; cited from earlier work"}, "[2]": {"tested_on": "respiratory syncytial virus (RSV/Long)", "assay": "Example 1: antibody/triamcinolone therapy of RSV-infected cotton rats (virus titer, pulmonary pathology)", "assay_type": "in vivo", "conditions": "treatment i.m. beginning 3 days post-infection; antibody 15 mg/kg, triamcinolone 1-16 mg/kg; lungs days 4 and 6", "experimental": "The following procedure was performed using inbred cotton rats (Sigmodon hispidus). On day 0, young adult cotton rats were divided into 9 groups of 12 animals each (total: 108 animals). Identification of each group in terms of treatment was as follows:\nIn each case (Groups B–I), approximately 10^6.5 plaque forming units (pfu) of respiratory syncytial virus (RSV/Long) was administered intranasally in a volume of 100 μl.\nOn day 3, treatment began as described above for each of the groups. The animals were each weighed and treated according to the indicated regimen. All antibody and steroid administration was intramuscular (i.e., systemic) and both antibody and steroid were administered together. Antibody was palivizumab wherein 15 mg/kg was the dose used in each case. All dosages are given as mg per kg of body weight.\nOn day 4, six animals from each group were sacrificed, their lungs bisected, with half being homogenized for viral quantitation and the other half being inflated with formalin for histological examination. The remaining six animals in each of groups D through I were treated with the dose of triamcinolone indicated above but no additional antibody was given.\nOn day 5, the remaining six animals in each group were treated again as described for day 4 (again with no additional antibody).\nOn day 6, the remaining 6 animals from each group were sacrificed and data collected as described for day 4. Thus, their lungs were bisected, with half being homogenized for viral quantitation and the other half being inflated with formalin for histological examination.\nResults of these experiments are shown graphically in FIGS. 2(a through e).\nThis experiment was duplicated on a separate population of 108 cotton rats divided into groups and treated as just described with similar results reported in FIG. 3 (FIG. 3(a) showing virus titer and FIG. 3(b) showing composite pathology score). The conclusions herein are the result of data from both experiments. The results for composite pathology scores are shown in FIG. 1 reflecting the results of both sets of experiments."}, "[3]": {"tested_on": "RSV", "conditions": "aerosol inhalation; versus untreated patients; cited from earlier work"}, "[4]": {"conditions": "cited from earlier work"}, "[5]": {"tested_on": "respiratory syncytial virus (RSV/Long)", "assay": "Example 3: different steroids with the same antibody in RSV pneumonia, arithmetic mean pathology scores", "assay_type": "in vivo", "conditions": "8 mg/kg/day i.p. days 3-5 plus antibody 15 mg/kg day 3; day 6", "experimental": "The following procedure was performed using inbred cotton rats (Sigmodon hispidus). On day 0, young adult cotton rats were divided into 8 groups of 4 animals each (total: 32 animals). Identification of each group in terms of treatment was as follows:\nIn each case (Groups B–H), approximately 10^6.5 plaque forming units (pfu) of respiratory syncytial virus (RSV/Long) was administered intranasally in a volume of 100 μl.\nOn day 3, treatment began as described above for each of the groups. The animals were each weighed and treated according to the indicated regimen. Antibody was palivizumab wherein 15 mg/kg was the dose used in each case. All dosages are given as mg per kg of body weight.\nOn day 4, animals in groups D through H were treated as described for day 3 but no additional antibody was given.\nOn day 5, animals in groups D through H were treated as on […] (again with no additional antibody).\nOn day 6, all animals were sacrificed. Lungs from all of the animals were inflated with formalin for histological examination."}, "[6]": {"tested_on": "RSV", "assay": "Example 5: lung pathology score (0 to 100) on day 6 after MAb and glucocorticoid therapy", "assay_type": "in vivo, cotton rats", "experimental": "Twenty eight (28) cotton rats (CRs) were infected intranasally with 6.5 logs of RSV (as 0.1 ml of inoculum), leading to dramatic lung pathology 6 days post-infection (PI). On day 3 PI (the peak for viral infection), 7 groups of 4 animals received one of the following: no therapy, or intramuscular (i.m.) MAb (15 mg/kg) (MAb=palivizumab) i.m. triamcinolone (TRI;Steris Laboratories, Phoenix, Ariz.) at 16 mg/kg and MAb; i.p. methylprednisolone (MED; Solu-Medrol® Pharmacia and Upjohn, Kalamazoo, Mich.) 4 mg/kg and MAb; i.p. MED at 8 mg/kg and MAb; i.p. dexamethasone (DEX; Elkins-Sinn, Cherry Hill, N.J.) 0.6 mg/kg and MAb; or i.p. DEX 1.2 mg/kg and MAb (TRI and DEX once daily, MED divided into every 6 hours). All glucocorticoids were repeated on days 4 and 5. The dose, frequency and route of administration of dexamethasone and methylprednisolone were extrapolated from human use recommendations.\nOn day 6, all groups (including 4 uninfected CRs were sacrificed (in general by carbon dioxide asphyxiation). For pathology, tissues were inflated and formalin fixed and coronal paraffin sections were cut at 4 μm thickness. Lung tissue slides scored on a 0 (normal) to 100 (marked pathology) severity scale, for bronchiolitis, alveolitis, and interstitial pneumonia.\nResults are shown graphically in FIG. 7A and summarized as follows in terms of pathology score (0 to 100)."}, "[7]": {"conditions": "MAb 15 mg/kg i.m. day 3, TRI 16 mg/kg i.m. days 3-5"}}, "data": [{"compound": "C[C@]12C=CC(=O)C=C1CC[C@@H]1[C@@H]2[C@@H](O)C[C@@]2(C)[C@H]1CC[C@]2(O)C(=O)CO", "note": "[prednisolone]", "values": [{"measurement": "effectiveness in infant RSV", "setting": "[1]", "result": "ineffectiveness"}]}, {"compound": "C[C@]12C=CC(=O)C=C1CC[C@H]1[C@@H]3C[C@@H](O)[C@](O)(C(=O)CO)[C@@]3(C)C[C@H](O)[C@@]12F", "note": "[triamcinolone]", "values": [{"measurement": "pulmonary pathology", "setting": "[2]", "result": "positive effect on pulmonary pathology"}, {"measurement": "viral clearance (RSV titer in lungs)", "setting": "[2]", "result": "retarded viral clearance"}]}, {"compound": "NC(=O)c1ncn([C@@H]2O[C@H](CO)[C@@H](O)[C@H]2O)n1", "note": "[ribavirin]", "values": [{"measurement": "level of secondary infection following cessation of treatment", "setting": "[3]", "result": "significantly higher than in untreated patients"}, {"measurement": "bioavailability", "setting": "[4]; given orally", "result": "about 45%"}, {"measurement": "time of peak concentrations in plasma", "setting": "[4]; in vivo, po", "result": "1 to 2", "unit": "h"}]}, {"compound": "C[C@H]1C[C@@H]2[C@H]([C@@H](O)C[C@@]3(C)[C@H]2CC[C@]3(O)C(=O)COC(=O)CCC(=O)[O-])[C@@]2(C)C=CC(=O)C=C12.[Na+]", "note": "[solumedrol]", "values": [{"measurement": "pulmonary pathology (arithmetic mean pathology scores) compared with triamcinolone", "setting": "[5]", "result": "worked almost as well as triamcinolone"}]}, {"compound": "palivizumab: anti-RSV IgG monoclonal antibody, commercially palivizumab, sequence described as Medi-493 (U.S. Pat. No. 5,824,307 FIGS. 7 and 8)", "values": [{"measurement": "pathology (summary of Table 1)", "setting": "[6]", "result": "did not reduce pathology"}, {"measurement": "Alveolitis pathology score (0 to 100)", "setting": "[6]; [7]", "result": 38}, {"measurement": "Bronchiolitis pathology score (0 to 100)", "setting": "[6]; [7]", "result": 75}, {"measurement": "Interstitial Pneumonia pathology score (0 to 100)", "setting": "[6]; [7]", "result": 49}, {"measurement": "lung tissue histology (inflammatory infiltrates)", "setting": "[6]; palivizumab day 3, methylprednisolone days 3, 4 and 5, hematoxylin and eosin, 64X", "result": "Little or no improvement"}, {"measurement": "pulmonary pathology", "setting": "[2]", "result": "no significant effect on pulmonary pathology"}, {"measurement": "viral clearance (RSV titer in lungs)", "setting": "[2]", "result": "accelerated viral clearance"}]}]}
